≈ marks a conversion by molar mass, not a printed value. Bridge positions count the residues as written; N and C are the ends. Peptide text beside a SMILES is read from it. I, II: the chains in the order shown. * marks the point of attachment. Palmitoyl = CCCCCCCCCCCCCCCC(=O)*; Myristoyl = CCCCCCCCCCCCCC(=O)*
Columns and labels:
[1] = Self-aggregation activity of the compound using 8-(Phenylamino)-1-naphthalenesulfonic acid as fluorescent probe at 300 uM by fluorescence assay in presence of 150 mM of NaCl; assay type: physicochemical
Lipopolysaccharide (LPS) [2] = assay: Induction of Escherichia coli 0111:B4 LPS neutralization using p-nitroaniline assessed as concentration required to neutralize 50% after 1 hr by limulus amebocyte lysate assay
Pseudomonas aeruginosa [3] = assay: Antibacterial activity against Pseudomonas aeruginosa DM23155 after 24 hrs by broth microdilution method; assay type: functional; conditions: DM23155, 24 h
[4] = Self-aggregation activity of the compound using 8-(Phenylamino)-1-naphthalenesulfonic acid as fluorescent probe at 20 uM by fluorescence assay; assay type: physicochemical
[5] = Induction of calcein leakage from DOPE/DOPG artificial membrane at 1:32 ratio of compound to lipid by fluorescence assay; assay type: physicochemical
Lipopolysaccharide (LPS) [6] = assay: Displacement of dansylcadaverine from Escherichia coli 0111:B4 LPS at 15 to 30 uM after 5 mins by high-throughput fluorescence displacement assay
[7] = Induction of calcein leakage from DOPC artificial membrane at 1:32 ratio of compound to lipid by fluorescence assay; assay type: physicochemical
Klebsiella pneumoniae = assay: Antibacterial activity against Klebsiella pneumoniae DM4299 after 24 hrs by broth microdilution method; assay type: functional; conditions: DM4299, 24 h
Escherichia coli = assay: Antibacterial activity against Escherichia coli ATCC 25922 after 24 hrs by broth microdilution method; assay type: functional; conditions: ATCC 25922, 24 h
[8] = Self-aggregation activity of the compound using 8-(Phenylamino)-1-naphthalenesulfonic acid as fluorescent probe at 100 uM by fluorescence assay; assay type: physicochemical
Pseudomonas aeruginosa [9] = assay: Induction of cytoplasmic membrane disruption in Pseudomonas aeruginosa DM23155 assessed as membrane integrity at 1 to 2 times MIC after 1 hr by fluorescence assay; assay type: functional
[10] = Toxicity in New Zealand white rabbit erythrocytes assessed as hemolytic activity after 60 mins; assay type: cell-based, Oryctolagus cuniculus; conditions: erythrocyte, 1 h

Activity [1]	EC50 (Lipopolysaccharide (LPS) [2])	MIC (Pseudomonas aeruginosa [3])	Activity [4]	Activity [5]	Activity (Lipopolysaccharide (LPS) [6])	Activity [7]	MIC (Klebsiella pneumoniae)	MIC (Escherichia coli)	Activity [8]	Structure (SMILES)	Activity (Pseudomonas aeruginosa [9])	HC10 [10]
Active	32.1 µM	3 µM (≈ 8.13 µg/mL)	50%	Active	135%	Active	10 µM (≈ 27.1 µg/mL)	1.5 µM (≈ 4.07 µg/mL)	50%	CCCCCCCCCCCCCC(=O)N[C@@H](CCCNC(=N)N)C(=O)NCC(=O)N[C@@H](CCCNC(=N)N)C(=O)N[C@@H](CCCCN)C(=O)N[C@H](C(=O)N[C@H](C(=O)N[C@@H](CCCNC(=N)N)C(=O)N[C@@H](CCCNC(=N)N)C(=O)NCCCC[C@H](NC(=O)[C@H](CCCNC(=N)N)NC(=O)[C@H](CCCNC(=N)N)NC(=O)[C@@H](NC(=O)[C@@H](NC(=O)[C@H](CCCCN)NC(=O)[C@H](CCCNC(=N)N)NC(=O)CNC(=O)[C@H](CCCNC(=N)N)NC(=O)CCCCCCCCCCCCC)C(C)C)C(C)C)C(=O)N[C@@H](CCCCN)C(=O)O)C(C)C)C(C)C (I: Myristoyl-RGRKVVRRKK-OH / II: Myristoyl-RGRKVVRR; amide I:9-II:C)	<50%	252 µg/mL
Active	47.9 µM	> 40 µM	50%	Active	151%	Active	> 40 µM	10 µM (≈ 27.7 µg/mL)	50%	CCCCCCCCCCCCCCCC(=O)N[C@@H](CCCNC(=N)N)C(=O)NCC(=O)N[C@@H](CCCNC(=N)N)C(=O)N[C@@H](CCCCN)C(=O)N[C@H](C(=O)N[C@H](C(=O)N[C@@H](CCCNC(=N)N)C(=O)N[C@@H](CCCNC(=N)N)C(=O)NCCCC[C@H](NC(=O)[C@H](CCCNC(=N)N)NC(=O)[C@H](CCCNC(=N)N)NC(=O)[C@@H](NC(=O)[C@@H](NC(=O)[C@H](CCCCN)NC(=O)[C@H](CCCNC(=N)N)NC(=O)CNC(=O)[C@H](CCCNC(=N)N)NC(=O)CCCCCCCCCCCCCCC)C(C)C)C(C)C)C(=O)N[C@@H](CCCCN)C(=O)O)C(C)C)C(C)C (I: Palmitoyl-RGRKVVRRKK-OH / II: Palmitoyl-RGRKVVRR; amide I:9-II:C)	<50%	114 µg/mL
